Measurements published in patent US12599599B2, “Anti-inflammatory, anti-cancer, and anti-angiogenic compounds, pharmaceutical compositions, and methods of making and using thereof” (MEDICON PHARMACEUTICALS, INC., priority 2017, dated 2026).

Legend:
[1] = test system: SKOV-3 human ovarian cancer cell xenografts; experiment: Intraperitoneal luciferase-expressing SKOV-3 tumors in nude mice; assay type: in vivo; details: 15 mg/kg ip once a day, six days a week
Procedure: The ability of compound 5 to inhibit the growth of human ovarian cancer cell xenografts in nude mice was determined. A mouse model that recapitulates the features of peritoneal spread was used, the peritoneal spread being the clinically most relevant presentation of ovarian cancer. In this model, luciferase-expressing ovarian cancer cells are injected intraperitoneally (ip) into nude mice. Multiple tumors grow in the peritoneal cavity and their growth is monitored periodically using the IVIS Lumina II imaging system following the intraperitoneal administration of luciferin, the substrate of luciferase. The luciferase gene was transfected into SKOV-3 cells, and 2×10^6 cells were intraperitoneally injected into mice. Two weeks later, when tumors had grown, mice treatment was started by intraperitoneally injecting compound 5, 15 mg/kg or vehicle (corn oil), once a day, six days a week (n=10 mice/group).
When the tumor volume of the compound 5 treated mice at the end of the study is compared to that of the day when treatment started (baseline), compound 5 caused 53% tumor regression, with 3 out of 10 mice having barely detectable tumors by imaging and no tumors visible at necropsy.
(§1) Compound 6 was also efficacious against chemotherapy-resistant ovarian cancer. […] The effect of compound 6 in cisplatin resistant (A2780cis) and doxorubicin (Adriamycin) resistant (A2780ADR) tumors was studied. Briefly, each of these cell lines was subcutaneously inoculated into athymic nude mice and when the tumor size reached 100-200 mm^3, compound 6 150 mg/kg/day or its vehicle were given i.p. After 11 days of treatment, for the cisplatin-resistant tumors the tumor volume of the vehicle group was 2388±127 mm^3 and for compound 6 group 1032±108 mm^3 (mean±SEM; P<0.02); while for the doxorubicin-resistant tumors these values were: vehicle group=1369±337 mm^3 and compound 6 group=396±182 mm^3 (P<0.02).

A2780cis xenografts = experiment: Subcutaneous xenografts in nude mice, cisplatin resistant; assay type: in vivo; details: compound 5 15 mg/kg/day six days a week ip; cis-platinum 5.5 mg/kg one time a week ip
Procedure: as §1
To determine whether compound 5 is efficacious against chemotherapy-resistant ovarian cancer, three pairs of sensitive and resistant human ovarian cancer cell lines were grown as subcutaneous xenografts in nude mice and treated as summarized in FIG. 10. These cell lines were: A2780, sensitive to both cis-platinum and Adriamycin (doxorubicin); A2780cis, resistant to cis-platinum; A2780ADR, resistant to Adriamycin: HEY, sensitive to Taxol; HEY-T30, resistant to Taxol. The treatments administered were: vehicle control; compound 5, 15 mg/kg/day six days a week, ip; cis-platinum 5.5 mg/kg, one time a week ip; Adriamycin 3 mg/kg twice a week ip; and Taxol 20 mg/kg twice a week ip.

[2] = test system: MIA PaCa2 human pancreatic cancer cells; experiment: In vitro synergy with tamoxifen; assay type: cell-based; details: tamoxifen prior to or concurrently with compound 5
Source text: Additionally, synergy has been documented between compounds 5 and 6 individually and several chemotherapeutic and other agents, including but not limited to various camptothecins (e.g., camptothecin 11), resveratrol, gemcitabine, docetaxel, curcumin, progesterone, and methotrexate. Such synergy concerned the ability of these combinations to markedly suppress the growth of various human cancer cell lines originating in the pancreas, lung and other tissues. Furthermore, extremely efficacious was the combination of compounds 5, 6 and tamoxifen in completely suppressing the growth of K-ras mutant human pancreatic cancer cell lines.

JNK = experiment: Activation by phosphorylation in SKOV-3 cells; assay type: cell-based, human
Procedure: (§2) FIGS. 12A-12C and FIGS. 13A-13C illustrate key findings related to the mechanism of action of compound 5 against ovarian cancer. The studies shown here were performed in SKOV-3 human ovarian cancer cells. FIG. 12A: Left: Compound 5 increases the percentage of cells with acridine orange staining determined by flow cytometry (4% 4→38% after treatment with compound 5) and indicating the induction of autophagy. Right: Electron micrographs show morphological features of cells undergoing autophagy. Yellow arrowheads: vacuoles; white arrowheads: autophagosomes. […] N: nucleus; ER: endoplasmic reticulum with visible ribosomes. The left micrograph shown normal ER (circled) in a vehicle-treated cell. […] The latter finding is diagnostic of ER stress. Magnification: 6,800×. FIG. 12C: Compound 5 suppresses STAT3, mTOR and JNK activation by phosphorylation, as well as the levels of COT.

STAT3 = experiment: Activation by phosphorylation in SKOV-3 cells; assay type: cell-based, human
Procedure: as §2

mTOR = experiment: Activation by phosphorylation in SKOV-3 cells; assay type: cell-based, human
Procedure: as §2

COT = experiment: Protein levels in SKOV-3 cells; assay type: cell-based, human
Procedure: as §2

eIF2α = experiment: Phosphorylation in SKOV-3 cells (integrated stress response); assay type: cell-based, human
Source text: (§3) FIG. 13A: Compound 5 induces the phosphorylation of eIF2α, confirming integrated stress response. p-eIF2αinduces ATF4 that suppresses 5′-cap dependent translation initiation, shown below. […] The levels of reporter proteins used in the translation assay (Pierce™ Renilla-Firefly Luciferase Dual Assay Kit; Thermo Scientific, Grand Island, NY) were normalized to the levels of intracellular FLUC-RLUC transcripts and are shown as percent of untreated control cells. RLU=Relative light units. 5′-cap dependent translation initiation was much less and occurred later. Values: Mean±SEM; *, p<0.05 and **, p<0.01 vs. control. […] Loading controls: β-actin and GADPH.

GCN2 = experiment: Activation by phosphorylation in SKOV-3 cells; assay type: cell-based, human; details: 1.5×IC50
Source text: as §3

PERK = experiment: Activation by phosphorylation in SKOV-3 cells; assay type: cell-based, human; details: 1.5×IC50
Source text: as §3

[3] = Ocular pharmacokinetics and biodistribution after eye drops; assay type: in vivo, New Zealand rabbits; parameters: unit not given here; details: rabbit, 20% eye drops
Procedure: The pharmacokinetics and biodistribution of compounds 1, 2, and 5 in the eye of rabbits were determined. Each of these compounds was dissolved in phosphate buffered saline (PBS) and used as eye drops. The eye drops were sterilized before application to rabbits by filtration through a 0.2 μm membrane. […] The eyes were harvested and eye tissues and the lacrimal glands were dissected, homogenized and the test compounds were extracted by acetonitrile and analyzed by HPLC, as described under Compound Synthesis described herein. Compounds 1 and 2 were detected at 328 nm, and compound 5 at 260 nm. […] All three compounds can unexpectedly, readily, and rapidly reach the posterior chamber of the eye.

SMILES: CCN(CC)CCCCNC(=O)c1ccccc1SC/C=C(\C)CC/C=C(\C)CCC=C(C)C [Compound 5]
- reduction of tumor volume compared to control ([1]; day 24): 153%
- mice having barely detectable tumors by imaging and no tumors visible at necropsy ([1]; end of study): 3 out of 10
- tumor regression vs baseline (day treatment started) ([1]; end of study): 53%
- growth of platinum-resistant xenografts (A2780cis xenografts): as efficacious as in the platinum sensitive xenografts
- synergy with tamoxifen on growth of MIA PaCa2 cells [2]: synergizes
- JNK activation by phosphorylation (JNK): suppresses
- STAT3 activation by phosphorylation (STAT3): suppresses
- mTOR activation by phosphorylation (mTOR): suppresses
- levels of COT (COT): suppresses
- phosphorylation of eIF2α (eIF2α): induces
- GCN2 activation by phosphorylation (GCN2): activated by phosphorylation
- PERK activation by phosphorylation (PERK): activated by phosphorylation
- Drug level in Vitreous [3]: 0.0
- Drug level in Ciliary body ([3]; 40 min): 0.0
- Drug level in Conjunctiva ([3]; 40 min): 33.2
- Drug level in Cornea ([3]; 40 min): 75.7
- Drug level in Iris ([3]; 40 min): 0.6
- Drug level in Lens ([3]; 40 min): 0.0
- Drug level in Retina ([3]; 40 min): 1.8
- Drug level in Sclera ([3]; 40 min): 1.3
- Drug level in Ciliary body ([3]; 60 min): 4.2
- Drug level in Conjunctiva ([3]; 60 min): 35.1
- Drug level in Cornea ([3]; 60 min): 96.7
- Drug level in Iris ([3]; 60 min): 1.9
- Drug level in Lens ([3]; 60 min): 0.0
- Drug level in Retina ([3]; 60 min): 3.4
- Drug level in Sclera ([3]; 60 min): 0.6
- Drug level in Vitreous ([3]; 60 min): 0.0
